How the values were obtained:
Settings in all cases: exposure: 5-72 hpf
[1] = tested on: Danio rerio embryo (fli1:egfp); test: heart rate at 72 hpf (beats per minute); higher = faster heart rate
Procedure: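 fli1:egfp zebrafish embryos exposed 5-72 hpf to chemical (0.05-50 µM, 0.1% DMSO) in 384-well plates; heart rate at 72 hpf quantified from stream acquisitions by semi-automated MetaXpress journal (peak counting); only embryos in concentrations passing survival/body-length criteria analyzed.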

[2] = tested on: Danio rerio embryo (fli1:egfp); test: pericardial area at 72 hpf (image area units (not stated)); higher = larger pericardial area (edema)
Procedure: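 fli1:egfp zebrafish embryos exposed 5-72 hpf to chemical (0.05-50 µM, 0.1% DMSO); pericardial area at 72 hpf measured by semi-automated MetaXpress journal (increase indicates edema).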

[3] = tested on: Danio rerio embryo (fli1:egfp); test: body length at 72 hpf (µm); higher = longer body (less growth inhibition)
Procedure: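 Transgenic fli1:egfp zebrafish embryos (one per well, 384-well plate) exposed statically from 5 to 72 hpf at 28 °C to chemical (0.05-50 µM, 0.1% DMSO); at 72 hpf anesthetized and imaged on ImageXpress; body length of live, hatched, correctly oriented embryos measured by automated MetaXpress journal. Dead/unhatched/misoriented embryos have no value.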

[4] = tested on: Danio rerio embryo (fli1:egfp); test: intersegmental vessel area normalized to body length at 72 hpf (ISV area / body length (normalized units)); higher = more vessel area
Procedure: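 fli1:egfp zebrafish embryos exposed 5-72 hpf to chemical (0.05-50 µM, 0.1% DMSO); intersegmental vessel (ISV) eGFP area quantified by MetaXpress journal at 72 hpf and normalized to body length.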

[5] = tested on: Danio rerio embryo (fli1:egfp); test: arterial (dorsal aorta) circulation score at 72 hpf (normalized DA-Max (arbitrary units)); higher = more circulation
Procedure: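 fli1:egfp zebrafish embryos exposed 5-72 hpf to chemical (0.05-50 µM, 0.1% DMSO); arterial circulation at 72 hpf quantified from stream acquisitions of the dorsal aorta by FFT-based analysis (DA-Max, normalized dorsal aorta signal); only concentrations passing survival/body-length criteria analyzed.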

C[C@@]1(c2ccc(Oc3ccccc3)cc2)OC(=O)N(Nc2ccccc2)C1=O (racemic) [Famoxadone]
Settings | arterial, [5] | body length at 72 hpf, [3] | heart rate at 72 hpf, [1] | intersegmental vessel area normalized, [4] | pericardial area at 72 hpf, [2]
0.05 µM | 15.7 | 2980 | 172 | 72.5 | 13400
0.098 µM | 14.7 | 2990 | 180 | 84.9 | 13700
0.195 µM | 14.5 | 2970 | 188 | 77.8 | 13500
0.39 µM | 12.7 | 2970 | 177 | 75.4 | 12100
0.78 µM | 14.9 | 2940 | 160 | 80 | 15500

O=C(O)c1cc(Oc2ccc(C(F)(F)F)cc2Cl)ccc1[N+](=O)[O-] [Acifluorfen]
Settings | arterial, [5] | body length at 72 hpf, [3] | heart rate at 72 hpf, [1] | intersegmental vessel area normalized, [4] | pericardial area at 72 hpf, [2]
0.05 µM | 16.3 | 2970 | 168 | 81.7 | 14900
0.098 µM | 14.7 | 3000 | 169 | 82.8 | 17600
0.195 µM | 14.4 | 3030 | 166 | 89.2 | 16700
0.39 µM | 15.6 | 3000 | 168 | 82.3 | 16700
0.78 µM | 14.4 | 2970 | 167 | 92.9 | 15600
1.56 µM | 15.9 | 3040 | 164 | 82.3 | 16400
3.125 µM | 15.2 | 3030 | 164 | 85.2 | 17500
6.25 µM | 14.2 | 3030 | 177 | 89.2 | 19400
12.5 µM | 16.1 | 3020 | 175 | 89.5 | 15900
25 µM | 15.6 | 2960 | 175 | 89.3 | 15500
50 µM | 14.5 | 2980 | 180 | 99.8 | 15800

C=CCOC(=O)C(C)(C)OC(=O)c1cc(-n2c(=O)cc(C(F)(F)F)n(C)c2=O)ccc1Cl [Butafenacil]
Settings | arterial, [5] | body length at 72 hpf, [3] | heart rate at 72 hpf, [1] | intersegmental vessel area normalized, [4] | pericardial area at 72 hpf, [2]
0.05 µM | 11.5 | 2960 | 182 | 72.8 | 15900
0.098 µM | 11.8 | 2990 | 180 | 61.6 | 14800
0.195 µM | 10.1 | 2960 | 191 | 70.6 | 16200
0.39 µM | 7.84 | 3000 | 185 | 68.9 | 15700
0.78 µM | 5.12 | 2970 | 172 | 55.9 | 18900
1.56 µM | 5.32 | 2970 | 168 | 61.2 | 18800
3.125 µM | 5.76 | 2980 | 175 | 69.3 | 18700
6.25 µM | 4.56 | 3010 | 184 | 72.8 | 28100
12.5 µM | 3.81 | 2860 | 163 | 81.2 | 36500

CCOC(=O)C(Cl)Cc1cc(-n2nc(C)n(C(F)F)c2=O)c(F)cc1Cl (stereo not given) [Carfentrazone-ethyl]
Settings | arterial, [5] | body length at 72 hpf, [3] | heart rate at 72 hpf, [1] | intersegmental vessel area normalized, [4] | pericardial area at 72 hpf, [2]
0.05 µM | 13.5 | 2950 | 186 | 53.3 | 13800
0.098 µM | 13.1 | 2970 | 172 | 55.6 | 15600
0.195 µM | 14.4 | 2980 | 187 | 64.4 | 15200
0.39 µM | 12.6 | 2990 | 190 | 61.5 | 17900
0.78 µM | 12.8 | 3030 | 194 | 65.4 | 17700
1.56 µM | 11.6 | 2950 | 186 | 56.7 | 18200
3.125 µM | 8.55 | 2940 | 190 | 64.7 | 19600
6.25 µM | 8.33 | 2970 | 184 | 67.9 | 25600

N#Cc1c(Cl)c(Cl)c(Cl)c(C#N)c1Cl [Chlorothalonil]
Settings | arterial, [5] | body length at 72 hpf, [3] | heart rate at 72 hpf, [1] | intersegmental vessel area normalized, [4] | pericardial area at 72 hpf, [2]
0.05 µM | 11.6 | 2960 | 138 | 70.8 | 17600
0.098 µM | 10.8 | 2990 | 140 | 78.4 | 24100
0.195 µM | 10.3 | 2940 | 154 | 75.7 | 23900
0.39 µM | 12.3 | 2880 | 153 | 80.7 | 22000

C#CCOC(=O)[C@@H](C)Oc1ccc(Oc2ncc(Cl)cc2F)cc1 [Clodinafop-propargyl]
Settings | arterial, [5] | body length at 72 hpf, [3] | heart rate at 72 hpf, [1] | intersegmental vessel area normalized, [4] | pericardial area at 72 hpf, [2]
0.0244 µM | 11.8 | 3010 | 177 | 65.9 | 14100
0.05 µM | 14.5 | 2990 | 168 | 84.8 | 13100
0.098 µM | 12.3 | 2960 | 173 | 79 | 12900
0.195 µM | 16.7 | 3060 | 183 | 76.8 | 13800
0.39 µM | 14.4 | 3000 | 188 | 87.1 | 15200
0.78 µM | 14.4 | 3000 | 185 | 73.6 | 15400
1.56 µM | 12 | 3030 | 190 | 84 | 13500
3.125 µM | 14.8 | 3030 | 191 | 82.7 | 12900
6.25 µM | 12.5 | 2930 | 193 | 82.8 | 12900
12.5 µM | 13.6 | 2940 | 196 | 89.6 | 13000

— the supplement of paper PMC4121296
